In brackets after ≈: the same amount, converted by molar mass. Where a SMILES comes first, the peptide text is derived from it. Bridges are numbered along the chain shown (N, C = ends). Roman numbers before positions name the chains, in order. [ ]: non-standard residue; d: D form. Thr(ol) = C[C@@H](O)[C@H](N)CO; Tle = CC(C)(C)[C@H](N)C(=O)O; NMeV = CN[C@H](C(=O)O)C(C)C; Hiv = CC(C)[C@H](O)C(=O)O; dDab = NCC[C@@H](N)C(=O)O; hSer = N[C@@H](CCO)C(=O)O; Orn = NCCC[C@H](N)C(=O)O; Dab = NCC[C@H](N)C(=O)O; Dap = NC[C@H](N)C(=O)O; Mpa = O=C(O)CCS
Key:
Format in all cases: cell-based
[1] = test system: human red blood cells (hRBC); experiment: Hemolysis; settings: red cells of human, 1 h, 200
Outline: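 Read-out is supernatant absorbance at 540 nm, normalised to full lysis by 2% Triton X-100 and zero lysis by PBS with 10% water. Peptides (200 μg/mL) were exposed to 20% v/v washed human erythrocytes at 37° C for 1 h under shaking.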

[2] = test system: Klebsiella pneumoniae SSI #3010; settings: SSI #3010
Outline: (§1)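 Cation-adjusted MH-II broth, 0.002% polysorbate 80, inoculum near 10^6 CFU/mL. MIC read visually after 18-20 h, 35° C; units μg/mL.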

[3] = test system: Enterobacter cloacae 848840; settings: 848840
Outline: as §1

[4] = test system: Pseudomonas aeruginosa ATCC 27853; settings: ATCC 27853
Outline: as §1

[5] = test system: Klebsiella pneumoniae 968733; settings: 968733
Outline: as §1

[6] = test system: Acinetobacter baumannii DSM 30008; settings: DSM 30008
Outline: as §1

Escherichia coli 926415 = settings: 926415
Outline: as §1

[7] = test system: Acinetobacter baumannii 872842; settings: 872842
Outline: as §1

[8] = test system: Escherichia coli ATCC 25922; settings: ATCC 25922
Outline: as §1

SMILES | Hemolysis at 200 μg/mL [1] [%] | MIC [2] [µg/mL] | MIC [3] [µg/mL] | MIC [4] [µg/mL] | MIC [5] [µg/mL] | MIC [6] [µg/mL] | MIC (Escherichia coli 926415) [µg/mL] | MIC [7] [µg/mL] | MIC [8] [µg/mL]
CC(C)C[C@@H]1NC(=O)[C@@H](CC(C)C)NC(=O)[C@H](CCN)NC(=O)[C@@H](NC(=O)[C@H](CCN)NC(=O)[C@@H](NC(=O)[C@H](CCN)NC(=O)CC[C@@H]2NC(=O)[C@H](CCN)NC(=O)[C@H](Cc3ccc(O)cc3)NC(=O)[C@@H](NC(=O)[C@@H](O)C(C)C)CSSC[C@@H](C(=O)N[C@H](CO)[C@@H](C)O)NC(=O)[C@H](C(C)(C)C)NC(=O)[C@H](CCO)NC(=O)[C@H](Cc3c[nH]c4ccccc34)NC(=O)[C@H]([C@@H](C)O)NC(=O)[C@@H](CCN)NC2=O)[C@@H](C)O)CCNC(=O)[C@H]([C@@H](C)O)NC(=O)[C@H](CCN)NC(=O)[C@H](CCN)NC1=O [Ex. 82] (I: H-[Hiv]CY[Dab]E[dDab]TW[hSer][Tle]C[Thr(ol)] / II: [Dab]T[Dab][Dab][Dab][dL]L[Dab][Dab]T; disulfide I:2-I:11; amide I:5-II:N; lactam II:4-II:C) | <1 | 0.0625 (≈ 0.0259 µM) | 0.25 (≈ 0.104 µM) | 0.25 (≈ 0.104 µM) | 0.25 (≈ 0.104 µM) | 0.125 (≈ 0.0518 µM) | 0.5 (≈ 0.207 µM) | 0.25 (≈ 0.104 µM) | 0.0625 (≈ 0.0259 µM)
CC(C)C[C@@H]1NC(=O)[C@@H](CC(C)C)NC(=O)[C@H](CCN)NC(=O)[C@@H](NC(=O)[C@H](CCN)NC(=O)[C@@H](NC(=O)[C@H](CCN)NC(=O)CC[C@@H]2NC(=O)[C@H](CCN)NC(=O)[C@H](Cc3ccc(O)cc3)NC(=O)[C@@H](NC(=O)[C@@H](N)C(C)C)CSSC[C@@H](C(=O)N[C@@H](CO)C(N)=O)NC(=O)[C@H](C(C)(C)C)NC(=O)[C@H](CO)NC(=O)[C@H](Cc3c[nH]c4ccccc34)NC(=O)[C@H]([C@@H](C)O)NC(=O)[C@@H](CCN)NC2=O)[C@@H](C)O)CCNC(=O)[C@H]([C@@H](C)O)NC(=O)[C@H](CCN)NC(=O)[C@H](CCN)NC1=O [Ex. 47] (I: H-VCY[Dab]E[dDab]TWS[Tle]CS-NH2 / II: [Dab]T[Dab][Dab][Dab][dL]L[Dab][Dab]T; disulfide I:2-I:11; amide I:5-II:N; lactam II:4-II:C) | <1 | 0.125 (≈ 0.0521 µM) | 4 (≈ 1.67 µM) | 0.125 (≈ 0.0521 µM) | 1 (≈ 0.417 µM) | 0.125 (≈ 0.0521 µM) | 0.25 (≈ 0.104 µM) | 0.125 (≈ 0.0521 µM) | 0.0625 (≈ 0.0261 µM)
CC(C)C[C@@H]1NC(=O)[C@@H](CC(C)C)NC(=O)[C@H](CCN)NC(=O)[C@@H](NC(=O)[C@H](CN)NC(=O)[C@@H](NC(=O)[C@H](CCN)NC(=O)CC[C@@H]2NC(=O)[C@H](CN)NC(=O)[C@H](Cc3ccc(O)cc3)NC(=O)[C@H]([C@@H](C)O)NC(=O)[C@H](C(C)C)NC(=O)CCSSC[C@@H](C(N)=O)NC(=O)[C@H](CO)NC(=O)[C@H](C)NC(=O)[C@H](C(C)(C)C)NC(=O)[C@H](CO)NC(=O)[C@H](Cc3c[nH]c4ccccc34)NC(=O)[C@H](CO)NC(=O)[C@@H](CCN)NC2=O)[C@@H](C)O)CCNC(=O)[C@H]([C@@H](C)O)NC(=O)[C@H](CCN)NC(=O)[C@H](CCN)NC1=O [Ex. 245] (I: [Mpa]VTY[Dap]E[dDab]SWS[Tle]ASC-NH2 / II: [Dab]T[Dap][Dab][Dab][dL]L[Dab][Dab]T; disulfide I:1-I:14; amide I:6-II:N; lactam II:4-II:C) | 1 | 0.125 (≈ 0.0497 µM) | 0.125 (≈ 0.0497 µM) | 0.25 (≈ 0.0994 µM) | 0.25 (≈ 0.0994 µM) | 0.03125 (≈ 0.0124 µM) | 0.125 (≈ 0.0497 µM) | 0.0625 (≈ 0.0249 µM) | 0.0625 (≈ 0.0249 µM)
CN[C@H](C(=O)N[C@H]1CSSC[C@@H](C(N)=O)NC(=O)[C@H](C(C)C)NC(=O)[C@H](CCO)NC(=O)[C@H](Cc2c[nH]c3ccccc23)NC(=O)[C@H](CCO)NC(=O)[C@@H](CCN)NC(=O)[C@H](CCC(=O)N[C@@H](CCN)C(=O)N[C@H](C(=O)N[C@@H](CCN)C(=O)N[C@H]2CCNC(=O)[C@H]([C@@H](C)O)NC(=O)[C@H](CCN)NC(=O)[C@H](CCN)NC(=O)[C@H](CC(C)C)NC(=O)[C@@H](CC(C)C)NC(=O)[C@H](CCN)NC2=O)[C@@H](C)O)NC(=O)[C@H](CCN)NC(=O)[C@H](Cc2ccc(O)cc2)NC1=O)C(C)C [Example 57] (I: H-[NMeV]CY[Dab]E[dDab][hSer]W[hSer]VC-NH2 / II: [Dab]T[Dab][Dab][Dab][dL]L[Dab][Dab]T; disulfide I:2-I:11; amide I:5-II:N; lactam II:4-II:C) | 3 | 0.25 (≈ 0.107 µM) | 0.25 (≈ 0.107 µM) | 0.25 (≈ 0.107 µM) | 4 (≈ 1.72 µM) | 0.125 (≈ 0.0537 µM) | 0.5 (≈ 0.215 µM) | 0.5 (≈ 0.215 µM) | 0.125 (≈ 0.0537 µM)
CC(=O)N[C@H](C(=O)N[C@H]1CSSC[C@@H](C(=O)N[C@H](C(N)=O)[C@@H](C)O)NC(=O)[C@H](C(C)(C)C)NC(=O)[C@H](CO)NC(=O)[C@H](Cc2c[nH]c3ccccc23)NC(=O)[C@H](CCN)NC(=O)[C@@H](CCN)NC(=O)[C@H](CCC(=O)N[C@@H](CCN)C(=O)N[C@H](C(=O)N[C@@H](CN)C(=O)N[C@H]2CCNC(=O)[C@H]([C@@H](C)O)NC(=O)[C@H](CCN)NC(=O)[C@H](CCN)NC(=O)[C@H]([C@@H](C)O)NC(=O)[C@@H](CC(C)C)NC(=O)[C@H](CCN)NC2=O)[C@@H](C)O)NC(=O)[C@H]([C@@H](C)O)NC(=O)[C@H](Cc2ccc(O)cc2)NC1=O)C(C)C [Ex. 263] (I: Ac-VCYTE[dDab][Dab]WS[Tle]CT-NH2 / II: [Dab]T[Dap][Dab][Dab][dL]T[Dab][Dab]T; disulfide I:2-I:11; amide I:5-II:N; lactam II:4-II:C) | 1 | 0.03125 (≈ 0.0129 µM) | 0.125 (≈ 0.0515 µM) | 0.125 (≈ 0.0515 µM) | 0.25 (≈ 0.103 µM) | 0.03125 (≈ 0.0129 µM) | 0.125 (≈ 0.0515 µM) | 0.0625 (≈ 0.0257 µM) | 0.03125 (≈ 0.0129 µM)
CC(=O)N[C@H](C(=O)N[C@H]1CCCNC(=O)[C@@H]([C@H](C)O)NC(=O)[C@H](C(C)(C)C)NC(=O)[C@H](CO)NC(=O)[C@H](Cc2c[nH]c3ccccc23)NC(=O)[C@H](CO)NC(=O)[C@@H](CCN)NC(=O)[C@H](CCC(=O)N[C@@H](CCN)C(=O)N[C@H](C(=O)N[C@@H](CN)C(=O)N[C@H]2CCNC(=O)[C@H]([C@@H](C)O)NC(=O)[C@H](CCN)NC(=O)[C@H](CCN)NC(=O)[C@H](CC(C)C)NC(=O)[C@@H](CC(C)C)NC(=O)[C@H](CCN)NC2=O)[C@@H](C)O)NC(=O)[C@H](CO)NC(=O)[C@H](Cc2ccc(O)cc2)NC1=O)C(C)C [Ex. 23] (I: Ac-V[Orn]YSE[dDab]SWS[Tle][dT] / II: [Dab]T[Dap][Dab][Dab][dL]L[Dab][Dab]T; lactam I:2-I:C, II:4-II:C; amide I:5-II:N) | <1 | 0.125 (≈ 0.0542 µM) | 0.125 (≈ 0.0542 µM) | 0.25 (≈ 0.108 µM) | 0.5 (≈ 0.217 µM) | 0.0625 (≈ 0.0271 µM) | 0.5 (≈ 0.217 µM) | 0.25 (≈ 0.108 µM) | 0.0625 (≈ 0.0271 µM)

Reference: US11629171B2, “Beta-hairpin peptidomimetics” (POLYPHOR AG, priority 2017, dated 2023)
